The values that follow come from ChEMBL document CHEMBL1201862, “PubChem BioAssay data set” (2004).

A word on the EC50: it is the midpoint of the concentration-response curve. By CC50 is commonly meant the concentration giving 50% cytotoxicity. One may read the IC50 as the midpoint of a concentration-inhibition curve. As a reminder, the AC50 is the midpoint of the concentration-response curve, whichever way the signal moves.

A short description of data set [1]: DRD fibroblast viability loss – cell-based, non-viral oncogenic, luminescence, dose response (AID 1934). In kind it is functional. The note with it: Homo sapiens.
In the next data set the test system is Vero. Description: cells. It is filed as functional. The following applies: Chlorocebus sabaeus.
For data set [2], the system named is BJ. Description: BJ-TERT-LT-ST fibroblast viability loss – cell-based, RAS-independent, luminescence, dose response (AID 1935).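 Note: BJ fibroblasts immortalized with TERT plus LT and ST oncogenes.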 In kind it is functional. The following applies: Homo sapiens.
The nature of data set [3]: Counterscreen for AddAB inhibitors: absorbance-based bacterial cell-based high throughput dose response assay for inhibitors of bacterial viability. [Related pubchem assays (depositor defined):AID435030, AID449728, AID449731, AID488942, AID488955, AID488956]. It is filed as functional. (Counterscreens check selectivity or assay interference.)
A further data set addresses Exodeoxyribonuclease V (Escherichia coli (strain K12), UniProt P04993+P07648+P08394). The experiment in a line: RecBCD inhibition via phage-restricted bacterial growth – absorbance, V66 E. coli, mutant T4 phage, counter-screen for AddAB inhibitor project, dose response (AID 492957). In kind it is functional, cell-based, Escherichia coli str. K-12 substr. MG1655.
Data set [4] deals with BJ. The experiment in a line: BJ-TERT fibroblast viability loss – cell-based, RAS-independent, luminescence, dose response (AID 1933). In kind it is functional. The note with it: Homo sapiens.
A further data set concerns the target T1, Estrogen receptor (Homo sapiens, UniProt P03372).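 Note: potency for inhibiting coactivator peptide recruitment to the receptor.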
T1 sequence (P03372 whole entry): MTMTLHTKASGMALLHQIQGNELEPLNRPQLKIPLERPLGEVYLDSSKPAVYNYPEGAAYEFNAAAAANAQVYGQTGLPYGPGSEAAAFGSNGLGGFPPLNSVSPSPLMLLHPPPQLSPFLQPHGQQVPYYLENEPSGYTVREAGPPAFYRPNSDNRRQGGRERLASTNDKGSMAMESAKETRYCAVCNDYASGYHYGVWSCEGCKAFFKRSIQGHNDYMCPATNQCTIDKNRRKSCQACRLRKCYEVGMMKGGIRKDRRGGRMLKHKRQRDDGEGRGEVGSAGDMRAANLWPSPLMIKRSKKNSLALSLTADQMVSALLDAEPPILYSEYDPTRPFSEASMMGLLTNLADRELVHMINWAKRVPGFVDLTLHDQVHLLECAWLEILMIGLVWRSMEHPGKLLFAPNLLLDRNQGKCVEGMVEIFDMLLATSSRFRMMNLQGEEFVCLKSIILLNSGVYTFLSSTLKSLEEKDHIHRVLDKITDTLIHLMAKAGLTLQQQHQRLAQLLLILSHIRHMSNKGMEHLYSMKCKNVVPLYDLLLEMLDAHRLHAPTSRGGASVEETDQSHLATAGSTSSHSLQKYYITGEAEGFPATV

The target in the next data set is Trypsin (Sus scrofa, UniProt P00761). Description: trypsin protease activity blockade – biochemical, quenched peptide fluorescence, cherry-pick, selectivity assay for Rce1 protease inhibitor project, dose response (AID 488789).
Sequence of Trypsin (P00761 whole entry): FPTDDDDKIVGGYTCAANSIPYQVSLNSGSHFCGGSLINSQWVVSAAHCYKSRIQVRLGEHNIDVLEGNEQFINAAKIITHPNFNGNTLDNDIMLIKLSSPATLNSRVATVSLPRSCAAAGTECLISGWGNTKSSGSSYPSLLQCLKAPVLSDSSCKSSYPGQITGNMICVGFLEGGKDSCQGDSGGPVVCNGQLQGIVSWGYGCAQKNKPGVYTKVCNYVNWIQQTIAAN
A further data set deals with CAAX prenyl protease 1 (Saccharomyces cerevisiae S288c, UniProt P47154). The experiment in a line: yeast CAAX protease Ste24 inhibition – biochemical, S. cerevisiae, plate reader, cherry-pick, dose response (AID 488815).
Sequence of CAAX prenyl protease 1 (P47154 whole entry): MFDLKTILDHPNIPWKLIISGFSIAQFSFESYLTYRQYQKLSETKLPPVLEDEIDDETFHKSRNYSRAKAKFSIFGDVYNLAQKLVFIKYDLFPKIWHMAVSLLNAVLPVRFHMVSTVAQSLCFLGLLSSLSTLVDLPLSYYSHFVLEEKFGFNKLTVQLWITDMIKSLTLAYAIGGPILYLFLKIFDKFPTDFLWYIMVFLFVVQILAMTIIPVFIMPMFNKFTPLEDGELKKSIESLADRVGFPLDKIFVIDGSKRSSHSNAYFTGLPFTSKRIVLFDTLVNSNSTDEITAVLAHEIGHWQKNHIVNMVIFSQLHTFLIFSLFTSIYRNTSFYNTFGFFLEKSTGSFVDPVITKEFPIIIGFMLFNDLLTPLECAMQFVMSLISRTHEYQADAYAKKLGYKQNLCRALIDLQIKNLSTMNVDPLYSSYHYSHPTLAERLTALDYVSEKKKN
For data set [5], the target named is T2, Delta-type opioid receptor (Homo sapiens, UniProt P41143). The experiment in a line: SAR Analysis of Antagonists of the DOR Receptor using an Image-Based Assay - Set 2. [Related pubchem assays (depositor defined):AID1777, AID1785, AID1786, AID1966, AID2133, AID2136, AID2284, AID2285, AID2357]. In kind it is functional.
T2 sequence (P41143 whole entry): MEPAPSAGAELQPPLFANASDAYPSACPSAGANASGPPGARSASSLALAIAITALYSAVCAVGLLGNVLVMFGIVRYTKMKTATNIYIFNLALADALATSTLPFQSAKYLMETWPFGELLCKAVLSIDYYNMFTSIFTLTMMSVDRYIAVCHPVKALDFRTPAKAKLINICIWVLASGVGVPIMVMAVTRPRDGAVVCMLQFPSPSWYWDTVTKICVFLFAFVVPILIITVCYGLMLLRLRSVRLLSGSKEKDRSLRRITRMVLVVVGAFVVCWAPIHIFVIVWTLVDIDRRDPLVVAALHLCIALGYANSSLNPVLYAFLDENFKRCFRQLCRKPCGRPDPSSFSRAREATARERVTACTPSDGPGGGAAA
Data set [6] has as its target T3, Kappa-type opioid receptor (Homo sapiens, UniProt P41145). Description: SAR analysis of small molecule agonists of the kappa opioid receptor via a luminescent beta-arrestin assay - Set 2. [Related pubchem assays (depositor defined):AID1777, AID1785, AID1786, AID1966, AID2133, AID2136, AID2284, AID449737]. It is filed as functional.
The target of data set [7] is T4, Mu-type opioid receptor (Homo sapiens, UniProt P35372). Description: SAR Analysis of Agonists of the MOR Receptor using an Image-Based Assay - Set 2. [Related pubchem assays (depositor defined):AID1777, AID1785, AID1786, AID1966, AID2133, AID2136, AID2284, AID2285, AID2352]. It is filed as functional.
T4 sequence (P35372 whole entry): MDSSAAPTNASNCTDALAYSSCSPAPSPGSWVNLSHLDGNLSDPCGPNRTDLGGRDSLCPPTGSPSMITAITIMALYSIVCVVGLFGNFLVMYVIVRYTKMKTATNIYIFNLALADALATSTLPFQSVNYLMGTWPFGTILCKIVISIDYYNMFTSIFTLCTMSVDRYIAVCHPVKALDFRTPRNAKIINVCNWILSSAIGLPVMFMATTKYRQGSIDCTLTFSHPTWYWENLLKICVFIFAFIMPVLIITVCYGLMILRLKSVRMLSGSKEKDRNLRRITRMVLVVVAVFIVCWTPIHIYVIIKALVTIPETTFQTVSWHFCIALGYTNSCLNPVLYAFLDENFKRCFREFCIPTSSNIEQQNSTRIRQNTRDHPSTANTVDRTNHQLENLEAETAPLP
In data set [8] the target is T3, Kappa-type opioid receptor. Description: SAR analysis of Antagonists of the Kappa Opioid Receptor (KOR) using an Image-Based Assay - Set 2. [Related pubchem assays (depositor defined):AID1777, AID1785, AID1786, AID1966, AID2133, AID2136, AID2284, AID2285, AID2348]. It is filed as functional.
Data set [9] has as its target T3, Kappa-type opioid receptor. Description: SAR analysis of Agonists of the Kappa Opioid Receptor (KOR) using an Image-Based Assay - Set 2. [Related pubchem assays (depositor defined):AID1777, AID1786, AID1966, AID2133, AID2136, AID2284, AID2285, AID2359]. In kind it is functional.
The target of data set [10] is T4, Mu-type opioid receptor. The experiment in a line: SAR Analysis of Antagonists of the MOR Receptor using an Image-Based Assay - Set 2. [Related pubchem assays (depositor defined):AID1777, AID1785, AID1786, AID1966, AID2133, AID2136, AID2284, AID2285, AID2420]. In kind it is functional.
In data set [11] the target is T2, Delta-type opioid receptor. The experiment in a line: SAR Analysis of Agonists of the DOR Receptor using an Image-Based Assay - Set 2. [Related pubchem assays (depositor defined):AID1777, AID1785, AID1786, AID1966, AID2133, AID2136, AID2284, AID2285, AID2370]. In kind it is functional.
Data set [12] concerns the target Voltage-dependent T-type calcium channel subunit alpha-1H (Homo sapiens, UniProt O95180). The experiment in a line: inhibition of CACNA1H calcium flux – cell-based, SynthLib3 library, HEK293 Cav3.2, fluorescence (AID 493041). In kind it is functional. (In general: Calcium flux is commonly read through the fluorescence of an indicator in the cells.)
Another data set addresses T5, Cytochrome P450 1A2 (Homo sapiens, UniProt P05177).
T5 sequence (P05177 whole entry): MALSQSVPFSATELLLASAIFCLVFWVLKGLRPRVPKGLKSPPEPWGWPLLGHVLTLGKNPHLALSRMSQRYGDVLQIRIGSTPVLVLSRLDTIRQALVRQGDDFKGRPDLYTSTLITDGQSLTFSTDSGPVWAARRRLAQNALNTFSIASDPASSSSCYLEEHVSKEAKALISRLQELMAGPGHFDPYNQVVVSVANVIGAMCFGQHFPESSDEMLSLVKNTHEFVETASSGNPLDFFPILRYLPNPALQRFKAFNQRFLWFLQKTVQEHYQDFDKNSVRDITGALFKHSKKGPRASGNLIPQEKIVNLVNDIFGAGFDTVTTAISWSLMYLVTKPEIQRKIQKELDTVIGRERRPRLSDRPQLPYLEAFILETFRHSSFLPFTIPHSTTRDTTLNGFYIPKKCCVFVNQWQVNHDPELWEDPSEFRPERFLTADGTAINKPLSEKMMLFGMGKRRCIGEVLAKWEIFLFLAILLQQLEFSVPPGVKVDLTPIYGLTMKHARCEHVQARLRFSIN

The next data set has as its system H4. The experiment in a line: Luminescence Cell-Based Dose Response HTS to Identify Activators of 5'UTR Stem-Loop Driven Prion Protein mRNA Translation in H4 Neuroglioblastoma Cells. [Related pubchem assays: 1829 (Project Summary), 1814 (Primary HTS)]. It is filed as functional. The following applies: Homo sapiens.
Data set [13] addresses Intestinal-type alkaline phosphatase (Homo sapiens, UniProt P09923). Description: inhibition of human intestinal alkaline phosphatase – biochemical, dose response (AID 488876). In kind it is functional.
Data set [14] can be described thus: decrease of insulin promoter-GFP reporter – imaging, high-content screening, mouse beta cells (AID 1628). In kind it is functional. The following applies: MIN6.
In another data set the target is Large T antigen (Simian virus 40, UniProt P03070). It is filed as functional, Betapolyomavirus macacae.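 Note: Confirmatory-stage PubChem screen for compounds that inhibit SV40 T antigen.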
Sequence of Large T antigen (P03070 whole entry): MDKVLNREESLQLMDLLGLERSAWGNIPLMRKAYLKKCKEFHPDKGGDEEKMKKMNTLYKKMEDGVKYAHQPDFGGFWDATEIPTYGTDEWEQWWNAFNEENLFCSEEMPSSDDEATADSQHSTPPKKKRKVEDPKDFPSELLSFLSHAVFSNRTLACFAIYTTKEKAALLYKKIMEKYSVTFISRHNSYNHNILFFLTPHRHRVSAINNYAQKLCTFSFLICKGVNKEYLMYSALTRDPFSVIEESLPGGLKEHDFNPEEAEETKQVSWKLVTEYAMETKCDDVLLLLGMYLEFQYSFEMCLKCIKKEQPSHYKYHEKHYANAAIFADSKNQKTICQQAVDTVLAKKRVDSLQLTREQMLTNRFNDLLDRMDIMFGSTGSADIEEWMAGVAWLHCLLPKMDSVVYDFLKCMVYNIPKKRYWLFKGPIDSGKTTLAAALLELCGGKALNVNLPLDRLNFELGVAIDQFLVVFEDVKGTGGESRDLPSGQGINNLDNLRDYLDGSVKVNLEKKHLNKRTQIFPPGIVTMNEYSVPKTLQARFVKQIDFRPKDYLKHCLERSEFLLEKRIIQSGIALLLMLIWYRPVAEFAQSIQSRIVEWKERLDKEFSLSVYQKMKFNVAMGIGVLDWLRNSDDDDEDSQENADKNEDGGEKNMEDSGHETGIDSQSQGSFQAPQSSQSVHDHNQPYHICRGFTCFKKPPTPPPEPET
Data set [15] has as its target Intestinal-type alkaline phosphatase (Mus musculus, UniProt P24822). The experiment in a line: PubChem AID 488785. It is filed as functional.
Data set [16] is described as follows: MIN6 cell viability loss – mouse insulinoma, cytotoxicity control, dose response (AID 2122).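 Note: confirmatory high-throughput counterscreen run to flag cytotoxic compounds.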 In kind it is functional.
In data set [17] the target is T6, Alkaline phosphatase, tissue-nonspecific isozyme (Homo sapiens, UniProt P05186).
T6 sequence (P05186 whole entry): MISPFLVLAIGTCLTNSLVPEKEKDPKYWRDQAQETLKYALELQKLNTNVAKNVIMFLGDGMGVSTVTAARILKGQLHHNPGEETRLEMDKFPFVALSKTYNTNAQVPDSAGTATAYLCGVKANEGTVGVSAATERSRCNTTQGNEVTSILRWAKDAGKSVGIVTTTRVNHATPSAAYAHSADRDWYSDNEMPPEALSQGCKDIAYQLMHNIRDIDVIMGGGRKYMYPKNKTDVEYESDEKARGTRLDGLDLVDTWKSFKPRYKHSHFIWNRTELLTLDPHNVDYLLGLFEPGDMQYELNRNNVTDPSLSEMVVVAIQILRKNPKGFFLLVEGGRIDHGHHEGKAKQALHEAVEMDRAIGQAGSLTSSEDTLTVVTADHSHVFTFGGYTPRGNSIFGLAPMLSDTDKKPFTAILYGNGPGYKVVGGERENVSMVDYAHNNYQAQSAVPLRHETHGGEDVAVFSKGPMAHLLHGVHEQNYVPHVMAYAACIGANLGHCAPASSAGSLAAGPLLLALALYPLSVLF
The experiment in a line: TNAP enzyme inhibition by screening hits, dose response, selectivity assay for mouse IAP inhibitor project, biochemical, human TNAP, uHTS hits (AID 488906). In kind it is functional.

Data set [18] has as its target T7, Rac GTPase-activating protein 1 (Homo sapiens, UniProt Q9H0H5).
T7 sequence (Q9H0H5 whole entry): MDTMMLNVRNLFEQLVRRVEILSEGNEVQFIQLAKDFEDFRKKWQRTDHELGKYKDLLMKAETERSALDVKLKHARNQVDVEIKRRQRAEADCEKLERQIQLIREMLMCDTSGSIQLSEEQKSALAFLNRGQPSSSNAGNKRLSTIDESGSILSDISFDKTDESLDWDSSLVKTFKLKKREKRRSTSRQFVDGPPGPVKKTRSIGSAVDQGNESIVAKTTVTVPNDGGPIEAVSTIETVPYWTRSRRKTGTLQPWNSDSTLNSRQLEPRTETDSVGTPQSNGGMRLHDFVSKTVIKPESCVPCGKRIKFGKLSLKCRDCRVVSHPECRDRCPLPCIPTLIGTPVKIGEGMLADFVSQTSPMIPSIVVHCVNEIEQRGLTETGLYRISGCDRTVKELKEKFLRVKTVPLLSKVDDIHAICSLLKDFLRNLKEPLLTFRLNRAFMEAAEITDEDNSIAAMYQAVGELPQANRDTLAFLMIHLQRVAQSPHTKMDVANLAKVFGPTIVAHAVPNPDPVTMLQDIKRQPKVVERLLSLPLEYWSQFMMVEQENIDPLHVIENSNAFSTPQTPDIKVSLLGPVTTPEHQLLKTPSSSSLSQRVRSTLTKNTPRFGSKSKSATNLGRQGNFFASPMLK
Description: blockers of MgcRacGAP-driven Rac1 GTP hydrolysis – biochemical, ADP Hunter fluorescence, primary and confirmatory, confirmation (AID 624330). In kind it is functional.

A further data set deals with Protein Tat (Human immunodeficiency virus type 1 group M subtype B (isolate HXB2)(HIV-1), UniProt P04608). In kind it is functional.
Sequence of Protein Tat (P04608 whole entry): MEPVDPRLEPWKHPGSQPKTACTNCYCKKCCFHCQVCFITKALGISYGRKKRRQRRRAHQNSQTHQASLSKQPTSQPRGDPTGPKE
Data set [19] is described as follows: viability loss in THP-1 monocytes – THP-1 cells, cytotoxicity control for Vif-APOBEC3G degradation inhibitor project, dose response (AID 1117359). In kind it is functional. The following applies: THP-1.

The source made the active and inactive calls.

T3 sequence (P41145 whole entry): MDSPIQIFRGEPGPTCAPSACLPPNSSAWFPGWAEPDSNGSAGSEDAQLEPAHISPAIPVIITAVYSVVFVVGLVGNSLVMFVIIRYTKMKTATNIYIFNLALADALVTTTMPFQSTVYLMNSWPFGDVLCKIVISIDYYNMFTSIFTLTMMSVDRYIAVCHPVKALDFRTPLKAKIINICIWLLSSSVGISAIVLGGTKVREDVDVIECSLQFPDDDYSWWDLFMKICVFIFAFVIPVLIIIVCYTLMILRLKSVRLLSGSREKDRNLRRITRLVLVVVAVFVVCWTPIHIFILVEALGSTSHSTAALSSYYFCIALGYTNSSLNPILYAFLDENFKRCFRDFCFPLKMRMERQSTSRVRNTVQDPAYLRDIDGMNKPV
Sequence of Intestinal-type alkaline phosphatase (Homo sapiens, UniProt P09923) (P09923 whole entry): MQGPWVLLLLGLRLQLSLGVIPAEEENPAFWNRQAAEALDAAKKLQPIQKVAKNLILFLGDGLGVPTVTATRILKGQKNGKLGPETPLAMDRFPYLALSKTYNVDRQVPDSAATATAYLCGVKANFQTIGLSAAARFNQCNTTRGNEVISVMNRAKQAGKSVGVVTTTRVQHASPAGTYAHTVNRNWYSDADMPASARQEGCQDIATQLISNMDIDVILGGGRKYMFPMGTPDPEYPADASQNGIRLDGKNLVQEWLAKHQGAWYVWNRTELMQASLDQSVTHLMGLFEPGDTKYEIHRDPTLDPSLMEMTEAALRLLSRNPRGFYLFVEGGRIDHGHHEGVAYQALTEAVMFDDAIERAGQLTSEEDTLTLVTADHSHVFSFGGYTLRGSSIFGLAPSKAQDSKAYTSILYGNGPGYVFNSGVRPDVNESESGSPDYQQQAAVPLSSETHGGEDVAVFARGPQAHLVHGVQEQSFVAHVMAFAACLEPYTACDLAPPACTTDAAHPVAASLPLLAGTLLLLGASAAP
Sequence of Intestinal-type alkaline phosphatase (Mus musculus, UniProt P24822) (P24822 whole entry): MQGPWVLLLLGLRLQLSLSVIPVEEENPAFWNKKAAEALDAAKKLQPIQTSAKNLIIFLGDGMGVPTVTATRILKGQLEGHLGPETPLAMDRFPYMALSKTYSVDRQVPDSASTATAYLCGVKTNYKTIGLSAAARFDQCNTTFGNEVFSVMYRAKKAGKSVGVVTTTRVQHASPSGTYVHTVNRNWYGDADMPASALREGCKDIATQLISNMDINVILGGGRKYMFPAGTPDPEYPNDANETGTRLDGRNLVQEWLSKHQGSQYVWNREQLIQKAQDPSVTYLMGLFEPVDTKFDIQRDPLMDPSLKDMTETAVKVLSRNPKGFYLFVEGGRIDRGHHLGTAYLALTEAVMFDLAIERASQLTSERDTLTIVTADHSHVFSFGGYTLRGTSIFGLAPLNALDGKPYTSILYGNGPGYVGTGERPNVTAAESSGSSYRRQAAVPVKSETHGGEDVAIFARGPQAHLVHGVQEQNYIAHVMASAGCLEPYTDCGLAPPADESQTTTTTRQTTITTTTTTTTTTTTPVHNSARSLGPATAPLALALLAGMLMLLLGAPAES

With `O=Nc1ccc(O)c2ncccc12`, the results for the EC50 (in data set [1]; with BJ [2]; in the data set with BJ [4]) were 8.56 µM (active), 8.73 µM (active) and 12.9 µM (active), respectively. In addition, the CC50 in the data set on Vero was 9.69 µM (active). Moreover, the IC50 in data set [3] is 35.6 µM (inactive); on Exodeoxyribonuclease V, > 119 µM (inactive).

Take `O=C(CSc1n[nH]c(-c2ccc(S(=O)(=O)N3CCCCC3)cc2)n1)Nc1nccs1`: the IC50 against Estrogen receptor is 47.2 µM (not active). In addition, the values for the AC50 at Trypsin and on CAAX prenyl protease 1 were 21.3 µM (active) and 8.82 µM (active), respectively.

Turning to `Brc1ccc(CSc2nnc(-c3ccccn3)n2Cc2cccs2)cc1`, the IC50 (in data set [5]; in [8]; at Mu-type opioid receptor [10]) was > 32 µM (inactive) each time. Moreover, the EC50 in [6] was 1.85 µM (active); at Mu-type opioid receptor [7], > 32 µM (inactive); in data set [9] it was 1.1 µM (active); in data set [11], > 32 µM (inactive).

Turning to `CC(C)CCN1C[C@@H]2C(CNC(=O)c3cc(Cl)cc(Cl)c3)[C@@H]2C1` (stereo partly drawn), the 50% effective concentration (EC50) in data set [12] was 1.9 µM (active).

On to `Nc1ncnc2c1ncn2[C@H]1O[C@@H](C(=O)OCCO)[C@@H](O)[C@H]1O`, for which the AC50 result on Cytochrome P450 1A2 is reported as “inconclusive”.

Turning to `C/N=c1\scc(-c2ccco2)n1/N=C/c1ccc(O)c(O)c1`, in the data set on H4, the EC50 is 70.2 µM (active). For the same compound, the IC50 in [13] is 13.4 µM (active); in data set [14] it was 6.81 µM (active); at Large T antigen, 25.5 µM (active); in data set [15], 1.7 µM (active); in data set [16], 3.56 µM (active); in [17] it was 29.7 µM (active). Also, the IC50 was 30.3 µM (active) in [18] and > 100 µM (active) at Protein Tat. In addition, the CC50 in data set [19] was 9.16 µM (active).
